Source: PubChem BioAssay AID2060487 (Molecular Pharmacology Branch, DTP, NCI, 2025)
“And” between values parts separate entries of the source, which are not always exact repeats. Identical values can stand only once. Values belong to the compound of their own block, whether it stands above or below them.

System: 997537-175-T-J1-PDC complex spheroid viability
Test: Anticancer human tumor 997537-175-T-J1-PDC patient-derived colon adenocarcinoma cell line growth inhibition [GQUAD]
Conditions: for viability, T/C: stronger effect = lower value
Source text: DNA G-quadruplex Stabilizer Agents in Combinations in Complex Spheroids
A high-throughput screen of multi-cell type tumor spheroids was designed to identify active combinations of DNA G-quadruplex stabilizer agents and targeted small molecules. Complex spheroids include a stromal component modeled by human endothelial cells (HUVEC) and fibroblasts modeled by human mesenchymal stem cells (MSCs). The concentration ranges selected for each drug and investigational agent were based upon clinically achievable concentrations if the clinical Cmax of the agent was known.
Compounds. The drugs and investigational agents: pidnarulex (CX-5461; NSC782164), APTO-253 (NSC789042), BRACO-19 (NSC847499), peposertib (NSC802822), ceralasertib (NSC780249), elimusertib (NSC800525), camonsertib (NSC841442), AZD-1390 (NSC803789), olaparib (NSC753686), talazoparib (NSC767125), ART-558 (NSC835418), sotorasib (NSC818433), MRTX-1133 (NSC836407), SN-38 (NSC673596), topotecan (NSC609699), etoposide (NSC141540), doxorubicin (NSC123127), gemcitabine (NSC613327), 5-fluorouracil (NSC19893), paclitaxel (NSC125973), vemurafenib (NSC761431), panobinostat (NSC761190), R-306465 (JNJ-16241199; NSC773264), adavosertib (NSC754352), TP-3654 (NSC805149), carboplatin (NSC241240), KSQ-4279 (NSC840948), and staurosporine (NSC755774) were obtained from the National Cancer Institute (NCI) Developmental Therapeutics Program Chemical Repository (34). The FDA-approved anticancer drug set is available from the NCI Developmental Therapeutics Program. […] The stock solutions were prepared in dimethyl sulfoxide (DMSO, Sigma-Aldrich, St. Louis, MO, cat. D2650) at 800-fold the tested concentration and stored at -70 degrees C prior to their use. All drugs and investigational agents were tested over a range starting from a high concentration at or near the clinical Cmax and decreasing in half-log increments. If the clinical Cmax for an agent had not been determined, the highest concentration tested was 10 microM.
2.3 Cell Culture. All cells were maintained in an incubator at 37 degrees C and 5% CO2 with 95% humidity. The PDC lines were cultured according to standard operating procedures established by the NCI PDMR. All PDCs were thawed and cultured in Matrigel-coated flasks prepared with a working solution of 1X Ham's F-12 nutrient mix, without supplementation (Invitrogen, cat. 11765054), 100 U/mL penicillin-streptomycin (Invitrogen, cat. 15140122), and 2.5% Matrigel (Corning Inc., cat. 354248) for the first three passages. The 857933-349-R-J2-PDC line was cultured in 6C/Colon 1B media, which includes advanced DMEM/F-12 (Thermo Fisher Scientific, cat. 12634028), 10 mM HEPES (Thermo Fisher Scientific, cat. 15630080), 1X GlutaMAX supplement (Thermo Fisher Scientific, cat. 35050061), 0.1 mg/mL primocin (InvivoGen, cat. ant-pm-2), 10% defined fetal bovine serum, heat inactivated (HyClone Laboratories Inc., cat. SH30070.03HI), 50% L-WRN conditioned media (ATCC, cat. CRL-3276), 1.25 mM N-Acetyl-L-cysteine (Sigma-Aldrich, cat. A9165), 10 mM nicotinamide (Sigma-Aldrich, cat. N0636), 1X B-27 supplement (Thermo Fisher Scientific, cat. 17504044), 1X N-2 supplement (Thermo Fisher Scientific, cat. 17502048), 10 microM Y-27632 dihydrochloride (Tocris Bioscience, cat. 1254), and 50 ng/mL human EGF recombinant protein (Thermo Fisher Scientific, cat. PHG0311). The 485176-168-R4-J1-PDC line was cultured in Panc media, which includes all 6C/Colon 1B media components plus 100 ng/mL human FGF-10 (Thermo Fisher Scientific, cat. 100-26), 500 nM SB-431542 (Selleckchem, cat. S1067), and gastrin (Tocris, cat. 3006).
[…]
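Also: spheroids exposed to the agents for 7 days.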
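For viability, T/C in this document: 100% = DMSO vehicle control viability.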

- IC50 (curve of compound): 10.5 nM and 17.4 nM and 9.78 nM
SMILES: CCc1c2c(nc3ccc(O)cc13)-c1cc3c(c(=O)n1C2)COC(=O)[C@]3(O)CC
- viability, T/C (compound 0.000999 µM): 83.3% and 102% and 95.3%
- viability, T/C (compound 0.00316 µM): 63.9% and 92% and 82.8%
- viability, T/C (compound 0.00999 µM): 52.7% and 68.5% and 49%
- viability, T/C (compound 0.0316 µM): 34.5% and 31.5% and 19.4%
- viability, T/C (compound 0.0999 µM): 6.34% and 5.01% and 4.92%
- viability, T/C (compound 0.316 µM): 2.98% and 3.42% and 6.93%

- IC50 (curve of compound): > 10000 nM and 1460 nM and 2030 nM
SMILES: CC(C)(O)C1CCC(Nc2ccc3ncc(-c4cccc(C(F)(F)F)c4)n3n2)CC1 (stereo not drawn)
- viability, T/C (compound 0.0316 µM): 106% and 96.5% and 115%
- viability, T/C (compound 0.1 µM): 111% and 78.3% and 65.2%
- viability, T/C (compound 0.316 µM): 114% and 96.7% and 109%
- viability, T/C (compound 1 µM): 101% and 61.5% and 68.3%
- viability, T/C (compound 3.16 µM): 98.6% and 24.1% and 40.3%
- viability, T/C (compound 10 µM): 96.8% and 28.7% and 36.9%

- IC50 (curve of compound): > 10000 nM
SMILES: O=c1[nH]cc(F)c(=O)[nH]1
- viability, T/C (compound 0.0316 µM): 108% and 85.2% and 99.8%
- viability, T/C (compound 0.1 µM): 104% and 108% and 86.2%
- viability, T/C (compound 0.316 µM): 96.1% and 89% and 98.1%
- viability, T/C (compound 1 µM): 95.1% and 85.5% and 92.2%
- viability, T/C (compound 3.16 µM): 101% and 70.3% and 82.5%
- viability, T/C (compound 10 µM): 83.9% and 87.2% and 93.6%

SMILES: CCc1c2c(nc3ccc(O)cc13)-c1cc3c(c(=O)n1C2)COC(=O)[C@]3(O)CC + CN(C)c1ccc(Nc2c3ccc(NC(=O)CCN4CCCC4)cc3nc3cc(NC(=O)CCN4CCCC4)ccc23)cc1
- IC50 (curve of first compound, second compound 0.0316 µM): 13.8 nM
- IC50 (curve of first compound, second compound 0.1 µM): 10.3 nM
- IC50 (curve of first compound, second compound 0.316 µM): 10.2 nM
- IC50 (curve of first compound, second compound 1 µM): 15.7 nM
- IC50 (curve of first compound, second compound 3.16 µM): 15.8 nM
- IC50 (curve of first compound, second compound 10 µM): 21.3 nM
- viability, T/C (second compound 0.0316 µM, first compound 0.000999 µM): 97.8%
- viability, T/C (second compound 0.0316 µM, first compound 0.00316 µM): 84.2%
- viability, T/C (second compound 0.0316 µM, first compound 0.00999 µM): 58.6%
- viability, T/C (second compound 0.0316 µM, first compound 0.0316 µM): 29.5%
- viability, T/C (second compound 0.0316 µM, first compound 0.0999 µM): 6.84%
- viability, T/C (second compound 0.0316 µM, first compound 0.316 µM): 4.15%
- viability, T/C (second compound 0.1 µM, first compound 0.000999 µM): 104%
- viability, T/C (second compound 0.1 µM, first compound 0.00316 µM): 83.4%
- viability, T/C (second compound 0.1 µM, first compound 0.00999 µM): 50.6%
- viability, T/C (second compound 0.1 µM, first compound 0.0316 µM): 22.9%
- viability, T/C (second compound 0.1 µM, first compound 0.0999 µM): 9.03%
- viability, T/C (second compound 0.1 µM, first compound 0.316 µM): 4.26%
- viability, T/C (second compound 0.316 µM, first compound 0.000999 µM): 97%
- viability, T/C (second compound 0.316 µM, first compound 0.00316 µM): 78.4%
- viability, T/C (second compound 0.316 µM, first compound 0.00999 µM): 51.6%
- viability, T/C (second compound 0.316 µM, first compound 0.0316 µM): 22.6%
- viability, T/C (second compound 0.316 µM, first compound 0.0999 µM): 8.39%
- viability, T/C (second compound 0.316 µM, first compound 0.316 µM): 4.2%
- viability, T/C (second compound 1 µM, first compound 0.000999 µM): 77.5%
- viability, T/C (second compound 1 µM, first compound 0.00316 µM): 58.7%
- viability, T/C (second compound 1 µM, first compound 0.00999 µM): 67.6%
- viability, T/C (second compound 1 µM, first compound 0.0316 µM): 23.9%
- viability, T/C (second compound 1 µM, first compound 0.0999 µM): 11.6%
- viability, T/C (second compound 1 µM, first compound 0.316 µM): 3.86%
- viability, T/C (second compound 3.16 µM, first compound 0.000999 µM): 75%
- viability, T/C (second compound 3.16 µM, first compound 0.00316 µM): 85%
- viability, T/C (second compound 3.16 µM, first compound 0.00999 µM): 57.8%
- viability, T/C (second compound 3.16 µM, first compound 0.0316 µM): 33.8%
- viability, T/C (second compound 3.16 µM, first compound 0.0999 µM): 9.84%
- viability, T/C (second compound 3.16 µM, first compound 0.316 µM): 4.51%
- viability, T/C (second compound 10 µM, first compound 0.000999 µM): 83.9%
- viability, T/C (second compound 10 µM, first compound 0.00316 µM): 84%
- viability, T/C (second compound 10 µM, first compound 0.00999 µM): 80.4%
- viability, T/C (second compound 10 µM, first compound 0.0316 µM): 34.2%
- viability, T/C (second compound 10 µM, first compound 0.0999 µM): 11.7%
- viability, T/C (second compound 10 µM, first compound 0.316 µM): 4.48%
